According to US20160095855A1, “USE OF A POLYMORPH OF FLIBANSERIN FOR TREATING DISEASE” (Sprout Pharmaceuticals, Inc., priority 2001, published 2016):

Tests used:
5-HT1A receptor = target: T1, 5-HT1A receptor (Homo sapiens, UniProt P08908); conditions: qualitative background statement; cited from earlier work
T1 sequence (P08908 1-422): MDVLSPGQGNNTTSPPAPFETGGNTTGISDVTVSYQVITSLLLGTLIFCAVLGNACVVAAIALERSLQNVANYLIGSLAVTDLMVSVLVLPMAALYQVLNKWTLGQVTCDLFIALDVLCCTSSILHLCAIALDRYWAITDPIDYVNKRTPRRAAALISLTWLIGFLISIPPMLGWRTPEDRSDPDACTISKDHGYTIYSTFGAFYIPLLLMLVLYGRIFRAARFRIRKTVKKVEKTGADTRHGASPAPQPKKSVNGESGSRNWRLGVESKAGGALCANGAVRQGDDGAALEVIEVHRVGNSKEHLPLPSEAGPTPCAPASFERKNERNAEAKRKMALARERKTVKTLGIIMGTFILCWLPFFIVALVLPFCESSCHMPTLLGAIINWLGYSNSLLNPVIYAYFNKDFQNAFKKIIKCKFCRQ

5-HT2-receptor = conditions: qualitative background statement; cited from earlier work
[1] = stability under mechanical stress produced by grinding; type: physicochemical; conditions: solid state, crystalline modification of free base

SMILES | affinity for the 5-HT1A receptor (5-HT1A receptor) | affinity for the 5-HT2-receptor (5-HT2-receptor) | stability under the effects of mechanical stress produced by grinding [1]
O=c1[nH]c2ccccc2n1CCN1CCN(c2cccc(C(F)(F)F)c2)CC1 [Flibanserin, 1-[2-(4-(3-trifluoromethyl-phenyl)piperazin-1-yl)ethyl]-2,3-dihydro-1H-benzimidazol-2-one] | shows affinity | shows affinity | –
O=c1[nH]c2ccccc2n1CCN1CCN(c2cccc(C(F)(F)F)c2)CC1 [polymorph A, 1-[2-(4-(3-trifluoromethyl-phenyl)piperazin-1-yl)ethyl]-2,3-dihydro-1H-benzimidazol-2-one] | – | – | fulfill the aforementioned stability requirements
O=c1[nH]c2ccccc2n1CCN1CCN(c2cccc(C(F)(F)F)c2)CC1 [polymorph B, 1-[2-(4-(3-trifluoromethyl-phenyl)piperazin-1-yl)ethyl]-2,3-dihydro-1H-benzimidazol-2-one] | – | – | little stability
